One experiment relates to Gastric Fistula Rat. Put plainly: Gastric antisecretory activity in the Gastric Fistula Rat. The format is in vivo, Long Evans rats. The conditions noted are these: sc; for ED50: Rattus norvegicus, read-out: ED50 sc. How it is done:
Determination of Gastric Antisecretory Activity in the Gastric Fistula Rat
Male Long Evans rats weighing about 240-260 grams at the time of cannula implantation are used. […] The fistula components are designed and the operative procedure is carried out exactly as described in the above reference. Post operatively the animals are individually housed in solid bottom cages with sawdust and are allowed food and water ad libitum throughout the entire recovery period. Animals are not used for test purposes for at least 15 days after the operative procedure.
The animals are fasted but allowed water ad libitum for 20 hours before the testing procedure is to begin. Immediately prior to collection, the cannula is opened and the. stomach washed gently with 30-40 mL of warm saline or distilled water to remove any residual contents. The catheter is then screwed into the cannula in place of the plugging screw and the rat is placed in a clear plastic rectangular cage measuring 40 cm long, 15 cm wide and 13 cm high. The bottom of the cage has a slit approximately 1.5 cm wide and 25 cm long running down the center to accommodate the catheter which hangs through it. In this way the rat is not restricted and can move -freely about the cage during collection periods. The remainder of the assay is carried out as described by Ridley et al. [Research Comm. Chem. Path.
Gastric secretions collected during the first hour after washing the stomach are discarded as they may be contaminated. For oral evaluation, the catheter is then removed from the cannula and replaced with the plugging screw. Water (2 mL/kg) is administered orally via gastric intubation and the animal is returned to the cage for 45 minutes. After this time the plugging screw is removed and replaced with a catheter to which a small plastic vial has been attached to collect the gastric secretions. A two hour sample is collected (this represents the control secretion), the catheter removed and.replaced with the plugging screw. The test drug is now administered orally in a volume of 2 mL/kg via gastric intubation. Forty-five minutes later the plugging screw is again removed, replaced with the catheter attached to a small plastic vial and another 2 hour sample is collected. The secretions in the second sample are compared to those of the control sample in order to determine thee effects of the test drug.
When test compounds are to be evaluated parenterally, the animal is injected ip or sc with the test compound vehicle in a volume of 2 mL/kg immediately after discarding the initial 60 minute collection. A two hour sample is collected (control secretion) and the animals are injected either ip or sc with the test compound in a volume of 2 mL/kg. An additional two hour sample is collected and its secretions are compared to those of the control period to determing drug effects.
The samples are centrifuged in a graduated tube for volume determination. Titratable acidity is measured by titrating a one mL sample to pH 7.0 with 0.02N NaOH, using an Autoburet and an electrometric pH meter (Radiometer). Titratable acid output is calculated in microequivalents by multiplying the volume in milliliters by the acid concentration in milliequivalents per liter.
Results are expressed as percent inhibition relative to control readings. Dose response curves are constructed and ED50 values are calculated by regression analyses. At least three rats are used at each dosage level and a minimum of three dosage levels are utilized for determination of a dose response curve.

Another experiment deals with Heidenhain Pouch Dog. As to the kind of experiment: Gastric antisecretory activity in the Heidenhain Pouch Dog. Type of experiment: in vivo, dogs. As to conditions: 95% confidence limits in parentheses; for ED50: Canis lupus familiaris. Here is the method: Determination of Gastric Antisecretory […] in the Heidenhain Pouch Dog Prior to surgery, hematology and blood chemistry profiles are obtained and an assessment made as to the general health of selected female dogs. Dogs are vaccinated with Tissue […]-Moore) and housed in general animal quarters for four weeks' observation so incipient diseases may become apparent. Dogs are fasted with water ad libitum 24 hours prior to surgery. […] Subsequent anesthesia is maintained with methoxy- flurane (Pitman-Moore). A mid-line linea alba incision from xiphoid to umbilicus provides good exposure and ease of closure. The stomach is pulled up into the operative fields the greater curvature stretched out at multiple points and clamps placed along the selected line of incision. The pouch is made from the corpus of the stomach so that true parietal cell juice is obtained. About 30% of the corpus volume is resected. The cannula is made of light-weight, biologically-inert material such as nylon or Delrin with dimensions and attachments after DeVito and […] fJ. Appl. Physiol., 14, 138 (1959)]. Post operatively, dogs are medicated with antibiotics and an analgesic. They are allowed 2-3 months for recovery. Experiments are carried out in the following way: […] The dogs are placed in a sling and a saphenous vein cannulated for drug administration. Histamine as the base (100 μg/kg/hr) and chlorpheniramine maleate (0.25 mg/kg/hr) are infused continuously (in a volume of 6 mL/hr) with a Harvard infusion pump. Ninety minutes' infusion are allowed for the dogs to reach a steady state of acid output. At this time the drug or normal saline (control) is administered concomitantly with the secretagogue in a volume of 0.5 mL/kg over a 30 second period. When oral studies are to be carried out, the drug is administered via gastric gavage in a volume of 5 mL/kg. Infusion of the secretagogue is continued and 15 minute samples of the gastric juice are taken for 4.5 hours. Each sample is measured to the nearest 0.5 mL and titratable acidity is determined by titrating a 1 mL sample to pH 7.0 with 0.2N NaOH, using an Autoburet and an electrometric pH meter '(Radiometer). Titratable acid output is calculated in microequivalents by multiplying the volume in milliliters by the acid concentration in milliequivalents per liter. Results are expressed as percent inhibition relative to control readings. Dose response curves are constructed and ED50 values are calculated by regression analyses. From 3 to 5 dogs are used at each dose level and a minimum of three dosage levels are utilized for determination of a dose response curve.

Experiment [1] deals with HCl-Induced Formation of Gastric Lesions. Put plainly: HCl-induced gastric erosions in rats (modified method of Robert et al.). Type of experiment: in vivo, Long Evans rats. The conditions noted are these: compound alone versus compound plus pepstatin (20 mg/kg po). Here is the method: (§1) In the tests described below, gastric erosions produced in rats by the oral instillation of 1.0 mL of 0.75N HC1 were compared with those in rats which had been pretreated with the most preferred compound of Formula I (of Example 1) or with that compound and pepstatin. Comparison tests utilizing pretreatment with the newer commercial product, ranitidine, and with ranitidine and pepstatin, are also shown. Ranitidine is about 4 and 6 times as potent as cimetidine as an inhibitor of gastric acid secretion by the oral route in the rat and dog, respectively.
A modification of the method of Robert et al., [Gastroenterology, 77, 433-443 (1979)] was employed to produce gastric erosions. Adult male, Long Evans rats weighing 280-300 g (Blue Spruce Farms, Alton, New York) were used. The animals were individually caged and food and water were removed 24 and 18 hours, respectively, prior to testing. On the following day, the test compound was administered orally to the animals 30 minutes before 1.0 mL of 0.75N HC1 was instilled into the stomach by gavage. Animals treated with the combination of the test compound and pepstatin received the test compound 30 minutes before, and a fixed amount of pepstatin (20 mg/kg po) 10 minutes before, the hydrochloric acid was administered. […] One hour after receiving the HC1 solution, the animals were sacrificed with an intraperitoneal injection of 0.2 mL of T-61®, a euthanasia solution (National Laboratories Corp.).
The stomachs were removed from the animals, cut along the greater curvature, opened, rinsed with saline and pinned out flat in a standard position for macroscopic examination and scoring of erosions. The stomachs were photographed with a Polaroid® Close Up camera (Polaroid Corporation) and scoring was determined from the photographs. For scoring purposes, only those erosions with a minimum length of 1 mm were considered. The severity of gastric ulceration was defined for each animal as the sum of the maximum continuous lengths (in mm) of the erosions satisfying the above criteria. Percent inhibition of lesion formation was defined as
(mm erosion, vehicle control') - (mm erosion, test agent) 100. (mm erosion, vehicle control)
Data were analyzed using the t-test for unpaired data' and ED50 values were calculated from the dose response data using probit analysis [Finney, Probit Analysis, 3rd ed., University Press, Cambridge, England (1971)].
The compound of Example 1 and ranitidine (synthesized by the Medicinal Chemistry Research Department of Bristol Laboratories, Division of.Bristol-Myers Company) were dissolved in one equivalent of HC1 and the pH adjusted to 5.5 with NaOH. A suspension of pepstatin (Banyu Pharmaceutical Co. Ltd.) in water was made by homogenizing the compound with a few drops of Tween-80® (Atlas Chemical Industries). Each of these compounds were administered orally by gavage in a volume of 2 mL/kg.

For experiment [2], the system named is gastric acid secretion. Put plainly: Inhibition of gastric acid secretion relative to cimetidine, oral route, rat. The format is in vivo. Here is the method: as §1
The subject of experiment [3] is gastric acid secretion. As to the kind of experiment: Inhibition of gastric acid secretion relative to cimetidine, oral route, dog. Type of experiment: in vivo. Here is the method: as §1
Experiment [4] relates to gastric acid secretion. Put plainly: Inhibition of gastric acid secretion relative to cimetidine, various animal studies. Type of experiment: in vivo. The conditions noted are these: inhibitors of gastric acid secretion, oral route. Here is the method:
Based on this potency difference, the oral dosage of the compounds of Examples 1 and 9 would be about 1/20 to 1/25 that of cimetidine, thus reducing the expected incidence of side effects. The usual oral dosage of cimetidine is 300 mg, given four times a day, while the usual dosage of the compounds of Examples 1 and 9 is about 12-15 mg, given four times a day. It was an object of this invention to further reduce the necessary dosage of the compounds of Formula I by the concomitant administration of a peptic activity- inhibitory amount of pepstatin. As will be shown below, such concomitant administration provides about a three-fold increase in potency compared with the administration of an equal amount of the compound of Formula I alone, thus permitting a further three-fold reduction in the dosage of the compound of Formula I.

[5] abbreviates: 95% confidence limits in parentheses.

Like-named read-outs stand apart in the source and are kept apart here. Where only a bound is given, the exact number is not on record here.

Broadly, the ED50 is the dose at which the effect has come halfway, by size or by number of responders. As to `O=c1c(NCCCOc2cccc(CN3CCCCC3)c2)c(NCc2cccnc2)c1=O` [Example 12, 2-[3-(3-Piperidinomethylphenoxy)propylamino]-l-(3-pyridyl)methyl-aminocyclobutene-3,4-dione], in the experiment with Gastric Fistula Rat (setting [5]), the ED50 was 0.094 µmol/kg and the “Potency Ratio [cimetidine = 1.0]” value was 44 (22-90).
As for `CN/C(=N/CCSCc1nc[nH]c1C)NC#N` [Cimetidine, cimetidine, reference compound], the ED50 in the experiment with Gastric Fistula Rat turned out to be 3.8 µmol/kg; in the experiment on Heidenhain Pouch Dog (INTRAVENOUS) it was 2.18 µmol/kg; with Heidenhain Pouch Dog (ORAL) it was 3.29 µmol/kg.
`Nc1c(NCCCOc2cccc(CN3CCCCCCCC3)c2)c(=O)c1=O` [Example 10m, 1-amino-2-[3-(3-octamethyleneiminomethylphenoxy)propylamino]-cyclobutene-3,4-dione]: in the experiment with Gastric Fistula Rat (setting [5]), the ED50 was 0.7 µmol/kg and the “Potency Ratio [cimetidine = 1.0]” value is listed as 5.4 (2.1-12).
Take `CN(C)Cc1ccc(CSCCNc2c(N)c(=O)c2=O)s1` [Example 3, 1-Amino-2-{2-[(5-dimethylaminomethyl-2-thienyl)methylthio]ethyl-amino}cyclobutene-3,4-dione]: in the experiment on Gastric Fistula Rat (setting [5]), the ED50 is ~4 µmol/kg and the “Potency Ratio [cimetidine = 1.0]” value is ~1.
Take `CNc1c(NCCCOc2cccc(CN3CCCCC3)c2)c(=O)c1=O` [Example 11, 1-Methylamino-2-[3-(3-piperidinomethylphenoxy)propylamino]cyclobutene-3,4-dione]: in the experiment on Gastric Fistula Rat (setting [5]), the ED50 worked out at 0.067 µmol/kg and the “Potency Ratio [cimetidine = 1.0]” value was 50 (15-169).
On the same counts, the results for `C#CCNc1c(NCCCOc2cccc(CN3CCCCC3)c2)c(=O)c1=O` [Example 14d] are 0.031 µmol/kg and 124 (62-243).
Consider `CNC(=C[N+](=O)[O-])NCCSCc1ccc(CN(C)C)o1` [Ranitidine, ranitidine], for which, in experiment [1], the “Potency Ratio” value is 1.18. The “times as potent as cimetidine as an inhibitor of gastric acid secretion” value in the experiment with gastric acid secretion [2] is on record as “about 4”; in the experiment on gastric acid secretion [3], ~6.
For the compound `Nc1c(NCCCOc2cccc(CN3CCCCCCC3)c2)c(=O)c1=O` [Example 10j, 1-amino-2-[3-(3-heptamethyleneiminomethylphenoxy)propylamino]-cyclobutene-3,4-dione], in the experiment on Gastric Fistula Rat (setting [5]), the ED50 worked out at 0.044 µmol/kg and the “Potency Ratio [cimetidine = 1.0]” value was 88 (36-211).
Take `Nc1c(NCCCOc2cccc(CN3CCCCCC3)c2)c(=O)c1=O` [Example 10i, 1-amino-2-[3-(3-hexamethyleneiminomethylphenoxy)propylamino]-cyclobutene-3,4-dione]: the ED50 in the experiment on Gastric Fistula Rat (setting [5]) is 0.08 µmol/kg. The “Potency Ratio [cimetidine = 1.0]” value in the experiment on Gastric Fistula Rat (setting [5]) is listed as 48 (21-97); with Heidenhain Pouch Dog (INTRAVENOUS) it was >40.
With `CN(C)Cc1ccc(CSCCNc2c(N)c(=O)c2=O)o1` [Example 2, 1-Amino-2-{2-[(5-dimethylaminomethyl-2-furyl)methylthio]ethyl-amino}cyclobutene-3,4-dione], in the experiment with Gastric Fistula Rat (setting [5]), the ED50 is < 1 µmol/kg and the “Potency Ratio [cimetidine = 1.0]” value was >4. In addition, the “Potency Ratio [cimetidine = 1.0]” value in the experiment on Heidenhain Pouch Dog (INTRAVENOUS) was ~20.
Consider `CN(C)Cc1cccc(OCCCNc2c(N)c(=O)c2=O)c1` [Example 9, 1-Amino-2-[3-(3-dimethylaminomethylphenoxy)propylamino]cyclobutene-3,4-dione], for which the ED50 in the experiment on Gastric Fistula Rat (setting [5]) came to 0.055 µmol/kg. Moreover, the “Potency Ratio [cimetidine = 1.0]” value is given as 61 (20-204) in the experiment on Gastric Fistula Rat (setting [5]), ~40 with Heidenhain Pouch Dog (INTRAVENOUS) and ~20 in the experiment with Heidenhain Pouch Dog (ORAL). The “times more potent than cimetidine” value in the experiment on gastric acid secretion [4] is recorded as 20-25.

Source of the values: patent EP0099122A2, “Compositions comprising pepstatin and an histamine H2-receptor antagonist having an enhanced antiulcer activity” (Bristol-Myers Company, priority 1982, dated 1984).
